Test results taken from US20080221163A1, “Selective Estrogen Receptor Modulators” (priority 2005, published 2008).
Where a name gives a salt, the structure may show the parent alone. Read-outs that look alike come from different tables or passages of the source.

Columns and labels:
[1] = system: Ishikawa human endometrial tumor cells; test: Ishikawa Cell Proliferation Assay (alkaline phosphatase readout; agonist and antagonist modes); assay type: cell-based; settings: for stimulation compared with tamoxifen: compound alone
Description: Ishikawa Cell Proliferation Assay: This assay measures cell proliferation (using an alkaline phosphatase readout) in both an agonist mode in the presence of a compound of the present invention alone, and in an antagonist mode in which the ability of a compound of the present invention to block estradiol stimulation of growth is measured.
Ishikawa human endometrial tumor cells are maintained in MEM (minimum essential medium, with Earle's salts and L-Glutamine, Gibco BRL, Gaithersburg, Md.), supplemented with 10% fetal bovine serum (FBS) (V/V), (Gibco BRL). One day prior to assay, growth media is changed to assay medium, DMEM/F-12 (3:1) (Dulbecco's Modified Eagle Medium: Nutrient Mixture F-12, 3:1 Mixture, phenol red-free, Gibco BRL) supplemented with 5% dextran coated charcoal stripped fetal bovine serum (DCC-FBS) (Hyclone, Logen, Utah), L-Glutamine (2 mM), MEM sodium pyruvate (1 mM), HEPES (N-[2-hydroxyethyl]piperazine-N′-[2-ethanesulfonic acid] 2 mM) all from Gibco BRL). After an overnight incubation, Ishikawa cells are rinsed with Dulbecco's Phosphate Buffered Saline (1×) (D-PBS) without Ca^+2 and Mg^+2 (Gibco BRL), and trypsinized by a 3 minute incubation with 0.25% Trypsin/EDTA, phenol red-free (Gibco BRL). Cells are resuspended in assay medium and adjusted to 250,000 cells/mL. Approximately 25,000 cells in a 100 μl media are added to flat-bottom 96 wells microculture plates (Costar 3596) and incubated at 37° C. in a 5% CO2 humidified incubator for 24 hours. The next day, serial dilutions of compounds are prepared in assay medium (at 6 times the final concentration in the assay). The assay is run in dual mode, agonist and antagonist modes.
For the agonist mode, plates receive 25 μl/well of assay medium followed by 25 μl/well of a diluted compound of the present invention (at 6× the final concentrations). For the antagonist mode, plates receive 25 μl/well of 6 nM E2 (β-Estradiol, Sigma, St. Louis, Mo.) followed by 25 μl/well of a diluted compound of the present invention (at 6× the final concentrations). After an additional 48-hour incubation at 37° C. in a 5% CO2 humidified incubator, media is aspirated from wells and 100 μl fresh assay medium is added to each microculture. Serial dilutions of compounds are prepared and added to the cells as described above. After an additional 72 hour incubation at 37° C. in a 5% CO2 humidified incubator, the assay is quenched by removing media and rinsing plates twice in Dulbecco's Phosphate Buffered Saline (1×) (D-PBS) (Gibco BRL). The plates are dried for 5 minutes and frozen at −70° C. for at least 1 hour. The plates are then removed from the freezer and allowed to thaw at room temperature. To each well, 100 μl of 1-Step™ PNPP (Pierce Chemical Company, Rockford, Ill.) is added. After a 20-minute incubation, plates are read on a spectophotometer at 405 nm.
The data is fitted to a linear interpolation to derive EC50 (for agonist mode) or IC50 (for antagonist mode) values. For the antagonist mode, a % efficacy for each compound is calculated versus E2 (1 nM) alone. For the agonist mode, a % efficacy for each compound is calculated versus the response to tamoxifen.

[2] = system: estrogen-induced response; test: 3-Day Rat Uterus Antagonist Assay; assay type: in vivo; settings: immature female rats, oral, 3 days, with E2 0.1 mg/kg; for inhibition of the estrogen-induced response (uterine weight/body weight ratio): administered at 0.01, 0.1 and 1.0 mg/kg
Excerpt: 3-Day Rat Uterus Antagonist Assay: This model for uterine antagonism utilizes immature (3 week old) female rats that are highly sensitive to estrogenic stimulation of the uterus given that their circulating estrogen levels are prepubertal. The uteri from immature rats are fully responsive to exogenous estrogen, yet are quiescent in the absence of exogenous estrogen. Administration of exogenous estrogen to immature rats produces a reliable elevation of uterine weight, which can be used to study uterine antagonist effects. The rats are treated with both estradiol and 4 different concentrations of a compound of the present invention for 3 days and then uterine wet weights are measured.
Nineteen to twenty-one day old (or 45-50 g) female rats are orally treated with E2 (0.1 mg/kg, a maximal stimulatory estrogenic stimulus for reliably increasing uterine weight) and 10, 1.0, 0.1 and 0.01 mg/kg test compound for 3 days, 6 rats per group. Test compounds are dissolved in 20% β-hydroxycyclodextrin and administered by oral gavage in a volume of 0.2 mL daily (15 min. prior to the ethynyl estradiol gavage). A vehicle control, E2 alone and E2+raloxifene are also done as controls. The animals are fasted overnight following the final dose. On the following morning, the animals are weighed, then euthanized (by carbon dioxide asphyxiation) and the uteri rapidly collected (via a mid-line ventral incision) and weighed.
Uterine weight/body weight ratios (UWR) are calculated for each animal. The percent inhibition of the estrogen-induced response is then calculated by the following formula: percent inhibition=100×(UWRestrogen−UWRtest compound/UWRestrogen−UWRcontrol). ED50 values are derived from a semi-log regression analysis of the linear aspect of the dose response curve. Both the UWR data and the percent inhibition data are statistically analyzed by one way analysis of variance (ANOVA) with post-hoc testing by Fisher's PLSD when indicated by a p≦0.05. Statistical analyses are performed using the Statview® 4.0 software package.

[3] = 10-Day Rat Hormone (Ovarian Stimulation) Screen; assay type: in vivo; settings: mature F344 female rats, oral gavage 10 days, serum about 2 hours after 10th dose, RIA
Description: 10-Day Rat Hormone (Ovarian Stimulation) Screen: An initial, first screen for ovarian toxicity is conducted using a 10-day rat hormone study to measure estradiol and luteinizing hormone levels after compound administration. This screen is conducted by administering compound by oral gavage for 10 days to mature (9-10 week old) F344 female rats. Trunk blood is collected by rapid decapitation for evaluation of LH and estradiol levels approximately 2 hours after the 10th dose. Serum, obtained by centrifugation, is removed and stored frozen below −60° C. until assayed. Serum levels of LH and estradiol are measured using radioimmunoassay (RIA) methods.
Rat LH primary antibody and reference preparations (rat LH:RP-3) are obtained from Dr. A. F. Parlow, Director, Pituitary Hormones and Antisera Center, Harbor-UCLA Medical Center, Torrance, Calif. The LH assay upper limits of detection are 30 ng/mL and the lower limits of detection are 0.1 ng/mL for the 100 μl samples.
E2 Clinical Assays. DiaSorin s.r.l., Saluggia (Vercelli), Italy. The upper limit of detection is 1000 pg/mL and the lower limit of detection is 5 pg/mL.

CS(=O)(=O)c1ccc2c(c1)OC(c1ccc(OCCN3CCCCC3)cc1)c1c-2ccc2cc(O)ccc12 (racemic) [Example 3, 8-Methanesulfonyl-5-[4-(2-piperidin-1-yl-ethoxy)-phenyl]-5H-6-oxa-chrysen-2-ol, mono-Hydrochloride salt]
stimulation compared with tamoxifen ([1]; agonist mode): less stimulatory than tamoxifen | % antagonism [2]: 81% | ED50 [2]: 0.17 mpk | inhibition of the estrogen-induced response (uterine weight/body weight ratio) [2]: inhibit the estrogen-induced response | circulating LH levels [3]: did not significantly elevate | circulating estradiol levels [3]: did not significantly elevate

CSc1ccc2c(c1)OC(c1ccc(OCCN3CCCCC3)cc1)c1c-2ccc2cc(O)ccc12.Cl (centres unmarked) [Example 1, 8-Methylsulfanyl-5-[4-(2-piperidin-1-yl-ethoxy)-phenyl-5H-6-oxa-chrysen-2-ol hydrochloride]
Emax ([1]; Homo sapiens, Ishikawa, agonist mode, % efficacy versus the response to tamoxifen, read-out: relative % efficacy): 26% | IC50 ([1]; Homo sapiens, Ishikawa, antagonist mode, block of estradiol stimulation): 45 nM | Emax ([1]; Homo sapiens, Ishikawa, antagonist mode, versus E2 (1 nM) alone, read-out: % efficacy): 92%

CSc1ccc2c(c1)OC(c1ccc(OCCN3CCCCC3)cc1)c1c-2ccc2cc(O)ccc12.Cl (centres unmarked) [Example 1]
stimulation compared with tamoxifen ([1]; agonist mode): less stimulatory than tamoxifen | % antagonism [2]: 69% | ED50 [2]: 0.22 mpk | inhibition of the estrogen-induced response (uterine weight/body weight ratio) [2]: inhibit the estrogen-induced response

CNS(=O)(=O)c1ccc2c(c1)OC(c1ccc(OCCN3CCCCC3)cc1)c1c-2ccc2cc(O)ccc12.Cl (centres unmarked) [Example 5, 8-N-methyl sulfonamide-5-[4-(2-piperidin-1-yl-ethoxy)-phenyl]-5H-6-oxacbrysen-2-ol]
stimulation compared with tamoxifen ([1]; agonist mode): less stimulatory than tamoxifen

CCS(=O)(=O)c1ccc2c(c1)OC(c1ccc(OCCN3CCCCC3)cc1)c1c-2ccc2cc(O)ccc12.Cl (centres unmarked) [Example 7, 8-Ethanesulfonyl-5-[4-(2-piperidin-1-yl-ethoxy)-phenyl]-5H-6-oxa-chrysen-2-ol hydrochloride salt]
stimulation compared with tamoxifen ([1]; agonist mode): less stimulatory than tamoxifen

CNS(=O)(=O)c1ccc2c(c1)-c1ccc3cc(O)ccc3c1C(c1ccc(OCCN3CCCCC3)cc1)O2.Cl (centres unmarked) [Example 9, 2-Hydroxy-5-[4-(2-piperidin-1-yl-ethoxy)-phenyl]-5H-6-oxa-chrysen-9-sulfonic acid methylamide hydrochloride salt]
stimulation compared with tamoxifen ([1]; agonist mode): less stimulatory than tamoxifen

CS(=O)(=O)c1ccc2c(c1)-c1ccc3cc(O)ccc3c1C(c1ccc(OCCN3CCCCC3)cc1)O2.Cl (centres unmarked) [Example 10, 9-Methanesulfonyl-5-[4-(2-piperidin-1-yl-ethoxy)-phenyl]-5H-6-oxa-chrysen-2-ol hydrochloride salt]
stimulation compared with tamoxifen ([1]; agonist mode): less stimulatory than tamoxifen
